Some test systems named below: NCI-H522 lung; MALME-3M melanoma; SK-MEL-28 melanoma; NCI-H226 lung; TK-10 renal; T-47D breast; SR leukemia; PC-3 prostate; HS 578T breast; RXF 393 renal.
Assay in all cases: growth of human tumour cells (NCI), 48 h

The structures appear in SMILES notation.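 A five-concentration, 48-hour dose response in 96-well plates underlies each endpoint, interpolated linearly between surrounding concentrations. GI50 = concentration required for 50% inhibition of growth. TGI: total growth inhibition.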 A value given as a limit tells only on which side of the number the result lay.

Regarding `COc1ccc2c(c1)CCCN2CCCCCCCCCCN(CCC(C)C)CCC(C)C`, the TGI with NCI-H522 lung worked out at 5.68 µM; with MALME-3M melanoma it was 28.1 µM; in the assay with SK-MEL-28 melanoma, 27.2 µM; in the assay with NCI-H226 lung it was 31.3 µM; in the assay with TK-10 renal, 31.9 µM.
`COc1ccc2c(C(=O)c3cn(CCN4CCOCC4)c4ccccc34)cccc2c1`: the TGI in the assay on T-47D breast is > 100 µM; with SR leukemia, > 100 µM; in the assay with PC-3 prostate, > 100 µM; with NCI-H522 lung it was > 100 µM; with HS 578T breast, > 100 µM; in the assay with MALME-3M melanoma it was > 75.7 µM. The TGI in the assay with SK-MEL-28 melanoma, in the assay with NCI-H226 lung, in the assay on TK-10 renal and with RXF 393 renal was > 100 µM in each case.
With `C[C@H]1C(=O)O[C@@H]2CCN3CC=C(COC(=O)[C@](C)(O)[C@@]1(C)O)[C@H]23`, the TGI in the assay on T-47D breast, with PC-3 prostate, in the assay on NCI-H522 lung, in the assay on HS 578T breast, with SK-MEL-28 melanoma and in the assay on NCI-H226 lung was > 100 µM each time. Also, the TGI with TK-10 renal is > 100 µM.
On to `CC(=O)NNc1nc(-c2ccc([N+](=O)[O-])cc2)c(C#N)c(=O)n1C`, for which the TGI was > 100 µM in the assay on T-47D breast; > 100 µM in the assay with SR leukemia; > 100 µM in the assay on PC-3 prostate; 45.6 µM in the assay on NCI-H522 lung; 99.5 µM with HS 578T breast; > 100 µM with MALME-3M melanoma. The TGI with SK-MEL-28 melanoma was > 100 µM; with TK-10 renal it was 72.8 µM; in the assay on RXF 393 renal, > 100 µM.
For `CN(C)CCNC(=O)c1cccc2ccc(-c3ccc(F)cc3)nc12`, the TGI in the assay with NCI-H522 lung is 16.9 µM; in the assay with MALME-3M melanoma, 13.6 µM; with SK-MEL-28 melanoma, 20.1 µM; with NCI-H226 lung, 11.6 µM; in the assay on RXF 393 renal, 20.4 µM.
`Nc1ccccc1N=Cc1cc2cc([N+](=O)[O-])ccc2s1`: the TGI in the assay with T-47D breast is 20.8 µM; in the assay with SR leukemia, > 100 µM; in the assay with PC-3 prostate, 30.9 µM; in the assay with NCI-H522 lung, > 100 µM; in the assay with HS 578T breast, 41.8 µM; in the assay on MALME-3M melanoma, 81.7 µM. The TGI in the assay on SK-MEL-28 melanoma was 57.8 µM; with TK-10 renal it was 29.6 µM; in the assay on RXF 393 renal it was 28.7 µM.
With `COc1ccc(C2=C3SC=c4ccccc4=C3ON=C2c2ccccc2)cc1`, the TGI in the assay on T-47D breast, with SR leukemia, in the assay on PC-3 prostate, in the assay on NCI-H522 lung, in the assay on HS 578T breast and in the assay on MALME-3M melanoma was > 100 µM throughout. Besides, the TGI with SK-MEL-28 melanoma, in the assay on NCI-H226 lung, in the assay on TK-10 renal and with RXF 393 renal was > 100 µM each time.
On to `N=C1C(=N)c2ccccc2-c2ccccc21.N=C1C(=N)c2ccccc2-c2ccccc21.N=C1C(=N)c2ccccc2-c2ccccc21.[Cl-].[Ru+2]`, for which the TGI in the assay on SR leukemia turned out to be 5.57 µM; in the assay with NCI-H522 lung, 2.84 µM; in the assay with MALME-3M melanoma it was 3.29 µM; in the assay with SK-MEL-28 melanoma, 3.79 µM; in the assay on RXF 393 renal, 5.58 µM. Besides, the GI50 with MALME-3M melanoma was 1.79 µM.
In the case of `Nc1n[nH]c(=O)c2c1c(I)cn2C1OC(CO)C(O)C1O` (stereo unspecified), the TGI is 1.33 µM with SR leukemia; 17.3 µM with MALME-3M melanoma; 3.47 µM with SK-MEL-28 melanoma; 7.6 µM with NCI-H226 lung; > 100 µM in the assay on TK-10 renal; 3.22 µM in the assay on RXF 393 renal.
As to `NCCc1cc(O)c(O)cc1O`, the TGI in the assay on T-47D breast was 73.2 µM; with SR leukemia it was 31 µM; in the assay with PC-3 prostate it was > 100 µM; in the assay with NCI-H522 lung it was 3.44 µM; in the assay with HS 578T breast, > 100 µM; in the assay with MALME-3M melanoma, > 74.1 µM. For the same molecule, the TGI in the assay on SK-MEL-28 melanoma is 97.5 µM; in the assay on NCI-H226 lung it was > 100 µM; in the assay with TK-10 renal it was > 100 µM; in the assay on RXF 393 renal it was 97.5 µM. The GI50 in the assay on NCI-H522 lung was 1.53 µM; in the assay with HS 578T breast, 34.4 µM; in the assay on NCI-H226 lung, 29.6 µM.
With `O=C1NI(C#Cc2ccccc2)c2ccccc21`, the TGI with T-47D breast was > 100 µM; in the assay on SR leukemia it was > 100 µM; in the assay with PC-3 prostate, 79.6 µM; in the assay on HS 578T breast it was > 100 µM; in the assay with MALME-3M melanoma, > 100 µM; with SK-MEL-28 melanoma, > 100 µM. For the same molecule, the TGI in the assay on NCI-H226 lung and with TK-10 renal was > 100 µM in each case.
`COc1cc(/C=C/C(=O)Oc2ccc(NC(C)=O)cc2)ccc1C(=O)O/C=C/c1ccccc1`: the TGI in the assay with NCI-H522 lung, in the assay with MALME-3M melanoma, in the assay with SK-MEL-28 melanoma, in the assay on NCI-H226 lung and with RXF 393 renal was > 100 µM in each case.
For `CN(C)CCCn1cnc2cc(Cl)c(Cl)cc21`, the TGI in the assay on T-47D breast, in the assay on SR leukemia, with PC-3 prostate, in the assay on NCI-H522 lung, with HS 578T breast and in the assay with MALME-3M melanoma was > 100 µM in each case. Moreover, the TGI was 41.8 µM in the assay with SK-MEL-28 melanoma, > 100 µM with NCI-H226 lung, > 100 µM in the assay on TK-10 renal and > 100 µM in the assay with RXF 393 renal.
For `FC(F)(F)c1ccc2c(c1)nc(-c1ccc(Cl)cc1)n2CC1CCCN2CCCCC12` (stereo unspecified), the TGI is 39.8 µM in the assay with T-47D breast; 33.8 µM in the assay with SR leukemia; 23.7 µM in the assay on PC-3 prostate; 26.5 µM with NCI-H522 lung; 36.3 µM with HS 578T breast; 29.8 µM in the assay on MALME-3M melanoma. The TGI turned out to be 30.8 µM in the assay with SK-MEL-28 melanoma, 31.4 µM with NCI-H226 lung, 28.5 µM with TK-10 renal and 30.1 µM in the assay with RXF 393 renal.
Regarding `CC(C)(C)[Si](C)(C)Oc1ccc(C2CNC(=O)C23CCC(=O)N3Cc2ccccc2)cc1` (stereo unspecified), the TGI in the assay with T-47D breast was 63 µM; in the assay with SR leukemia, > 100 µM; in the assay on PC-3 prostate it was 35.7 µM; with NCI-H522 lung, 29.2 µM; in the assay on HS 578T breast, 21.5 µM; with MALME-3M melanoma it was 48.4 µM. For the same molecule, the TGI in the assay with NCI-H226 lung was 44.8 µM; in the assay on TK-10 renal, 51.8 µM; in the assay with RXF 393 renal, 23.2 µM.
Take `Oc1cn(-c2ccc(Cl)cc2)nc1-c1n[nH]c(=S)n1-c1ccccc1`: the TGI in the assay on T-47D breast was > 100 µM; in the assay with SR leukemia it was 94 µM; in the assay on PC-3 prostate, > 100 µM; in the assay on NCI-H522 lung it was 19.5 µM; in the assay with HS 578T breast, 55.1 µM; in the assay with MALME-3M melanoma, 62.9 µM. Moreover, the TGI was > 100 µM in the assay with SK-MEL-28 melanoma, 59.8 µM with NCI-H226 lung, 58.7 µM in the assay with TK-10 renal and 36.9 µM in the assay on RXF 393 renal.
On to `COC(C)(C)OCCN1CCN(CCN2C3=C(C=C(C(C)=O)C3)Sc3ccccc32)CC1`, for which the TGI is > 100 µM with T-47D breast; 33.2 µM in the assay on SR leukemia; 72.9 µM in the assay with PC-3 prostate; 33.2 µM with NCI-H522 lung; 36.5 µM in the assay with HS 578T breast; 36.6 µM in the assay with MALME-3M melanoma. For the same molecule, the TGI in the assay with SK-MEL-28 melanoma worked out at 32.9 µM; in the assay with NCI-H226 lung, 65.6 µM; with TK-10 renal, 34.6 µM; with RXF 393 renal, 42.2 µM.
For `NCCCn1c2c(c3ccc([N+](=O)[O-])cc3c1=O)C(=O)c1ccccc1-2`, the GI50 in the assay on SR leukemia is 0.005 µM; with PC-3 prostate, 0.326 µM; with NCI-H522 lung it was 0.462 µM; in the assay on HS 578T breast, 0.657 µM; in the assay with SK-MEL-28 melanoma it was 0.497 µM; in the assay with NCI-H226 lung, 0.0151 µM. In addition, the GI50 with TK-10 renal is 0.212 µM; with RXF 393 renal, 0.709 µM. For the same molecule, the TGI is > 50 µM in the assay with SR leukemia; 3.61 µM in the assay with PC-3 prostate; > 50 µM in the assay on NCI-H522 lung; 2.29 µM with HS 578T breast; 0.118 µM with NCI-H226 lung; 1.83 µM in the assay on TK-10 renal. Besides, the TGI in the assay with RXF 393 renal was found to be 2.1 µM.
As to `Cc1c2cccc-2c(OCCO)cc2c3ccccc3n(C)c12`, the TGI with T-47D breast was > 100 µM; with SR leukemia, 6.12 µM; with PC-3 prostate, 11.5 µM; in the assay with NCI-H522 lung, 4.8 µM; in the assay with HS 578T breast it was 7.15 µM; with MALME-3M melanoma, 17 µM. In addition, the TGI in the assay on SK-MEL-28 melanoma is 21.4 µM; in the assay on NCI-H226 lung, 24.2 µM; in the assay with TK-10 renal, 23.4 µM; in the assay with RXF 393 renal it was > 100 µM.
Take `Cc1cc2c(cc1C(=O)c1ccc(N)cc1)OCO2`: the TGI in the assay with T-47D breast was > 100 µM; with SR leukemia, > 100 µM; in the assay with PC-3 prostate it was > 100 µM; in the assay with NCI-H522 lung, 54.4 µM; in the assay on HS 578T breast, > 100 µM; in the assay on MALME-3M melanoma it was > 100 µM. The TGI in the assay with TK-10 renal is > 100 µM.
Turning to `COc1ccc(/C(Cl)=C(\C=O)c2ccc(OC)cc2)cc1`, the TGI with SR leukemia was 78.8 µM; in the assay on NCI-H522 lung it was > 100 µM; in the assay with MALME-3M melanoma, > 100 µM; with NCI-H226 lung, > 100 µM; with TK-10 renal, > 100 µM; in the assay on RXF 393 renal, > 100 µM.
For `CCc1nc(N)nc(N)c1-c1ccc([N+](C)(C)C)cc1`, the TGI with T-47D breast, in the assay with SR leukemia, in the assay on PC-3 prostate, with NCI-H522 lung, in the assay with HS 578T breast and in the assay with SK-MEL-28 melanoma was > 100 µM throughout. Further, the TGI in the assay on NCI-H226 lung, with TK-10 renal and in the assay with RXF 393 renal was > 100 µM each time.
Consider `O=P1(c2ccccc2)Nc2ccccc2SSc2ccccc2N1`, for which the TGI was found to be 29 µM in the assay on NCI-H522 lung; 36.9 µM with MALME-3M melanoma; 34.3 µM in the assay on SK-MEL-28 melanoma; 33.4 µM in the assay on NCI-H226 lung; 34.5 µM with RXF 393 renal.
As to `Cc1cc(/N=C/c2ccc(F)cc2)n(-c2ccccc2)n1`, the TGI in the assay with T-47D breast, in the assay with SR leukemia, with PC-3 prostate, with NCI-H522 lung, in the assay with HS 578T breast and in the assay with MALME-3M melanoma was > 100 µM throughout. Moreover, the TGI in the assay with SK-MEL-28 melanoma, with NCI-H226 lung, in the assay on TK-10 renal and in the assay on RXF 393 renal was > 100 µM in each case.
Regarding `CCOC(=O)c1c2c(n(Cc3ccccc3)c1C)C(=O)C(=O)c1ccccc1-2`, the TGI with T-47D breast stood at 2.19 µM; in the assay with PC-3 prostate, 5.14 µM; in the assay with HS 578T breast, 2.19 µM; with MALME-3M melanoma, 0.191 µM; in the assay on SK-MEL-28 melanoma, 0.601 µM; in the assay on NCI-H226 lung, 1.22 µM. In the assay on TK-10 renal, this molecule returned a TGI of 1.18 µM.

The values are drawn from PubChem BioAssay (NCI).
